# Assay results reported in patent publication US20080113900A1, “Pharmaceutical compositions and therapeutic applications for the use of a synthetic vitamin B12 derivative, glutathionylcobalamin” (priority 2006, published 2008).
# Values joined by “and” are separate entries in the source; they are usually repeats but may differ in a detail not shown here. Identical values can stand only once.
# Legend:
# SK-HEP-1 cells = assay: Protection of endothelial cells from homocysteine-induced cell death (MTS assay); assay type: cell-based, human; conditions: for Absorbance at 490 nm: single replicates Y1-Y6
# Experimental: The effect of a constant concentration of NACCbl and GSCbl to protect cells against variable concentrations of homocysteine was assessed. […] Cell viability was determined by MTS® assay. Data shown in FIG. 4 are representative of means ±SE of 6 independent samples. FIG. 4 illustrates that NACCbl (▪) and GSCbl (▴) protect endothelial cells from the effect of homocysteine. […] Cell viability was determined by MTS® assay. […] There was a decrease in protection as homocysteine concentration increased, but there was still ˜60% survival at 50 μM homocysteine.
# The data was normalized (log 2 and log 10) as shown in FIGS. 16 and 17 and Tables 16 and 17, respectively, below.
# Hsp32 = Hsp32 gene expression (RT-PCR, densitometry); assay type: cell-based, human; conditions: SK-HEP-1; Sn (IX) protoporphyrin 25 μM; Quercitin 15 μM
# Experimental: (§1) Cells were plated into 6-, 12-, or 24-well cell culture clusters, at 2×10^3, 2×10^5, or 1×10^5 cells per well and incubated until 90% confluent. Treatments were applied as above.
# (§2) Following incubation, cells were subjected to mRNA extraction followed by cDNA synthesis for each sample under test. Polymerase chain reaction cDNA templates were prepared for simplex PCR protocol. PCR products were then visualized using a UV Transilluminator and images captured using a Kodak ID gel imaging system. Densitometry and statistical analysis was then performed on each gene expression band image using PSP® v 10.0 running under Windows XP®.
# (§3) mRNA extraction was performed using the Quickprep micro mRNA Purification Kit. Following incubation of cells post-treatment, the media was removed from the cells, adherent cells were re-suspended in 0.4 ml extraction buffer and 0.8 ml elution buffer at 65° C. was added.
# A reaction mixture was prepared in individual microcentrifuge tubes containing 2 cDNA synthesis beads, 32 μl of the mRNA solution and 1 μl of pd(N)6. This mixture was incubated at 37° C. in a water bath for 60 minutes. After incubation, 27 μl of RNase-free DEPC treated water was added to each tube to make a total volume 60 μl. cDNA samples were prepared in duplicate. Sample 1 was used immediately in RT-PCR protocol. Sample 2 was prepared for qPCR protocol by the addition of 150 μl of 95% ice-cold ethanol and stored at −20° C.
# Microcentrifuge tubes from puReTaq™Ready-To-Go™ PCR Beads containing one PCR bead were labeled for each sample required. Added to the PCR bead were 17 μl of RNase-free DEPC treated water, 1 μl sense primer, 1 μl anti-sense primer and 5 μl of the cDNA solution. RT-PCR conditions were as follows: Hsp70 and β-actin, pre-treatment step, 94° C. for 1 minute, followed by denaturing at 92° C. for 1 minute, annealing at 60° C. for 1 minute and extension at 72° C. for 1 minute. Total cycles, 30, post-treatment was then carried out at 72° C. for 10 minutes. For Hsp32, pre-treatment step, 95° C. for 2 minutes, followed by denaturing at 94° C. for 30 seconds, annealing at 58° C. for 1 minute and extension at 72° C. for 1 minute. Total cycles 45, post treatment was then carried out at 72° C. for 10 minutes. Following RT-PCR, samples were stored at −20° C.
# Gels were visualised on a UV Transilluminator. Photographs were stored using a Kodak Digital camera system fitted with a UV filter set connected to a PC. Images were then transferred to the Kodak ID gel imaging system. Densitometry was performed on each gene expression band using PSP™ v10 running under Windows XP®.
# Experiments were conducted using Hsp32 and Hsp 70 gene expression as the basis for study. […] The densitometric data are presented as means ±SEM of n=3 separate experiments. *p<0.05 or **p<0.01, treatment vs. control.
# Hsp70 = Hsp70 gene expression (RT-PCR, densitometry); conditions: SK-HEP-1; Quercitin 15 μM
# Experimental: as §1, §2, §3
# A reaction mixture was prepared in individual microcentrifuge tubes containing 2 cDNA synthesis beads, 32 μl of the mRNA solution and 1 μl of pd(N)6. This mixture was incubated at 37° C. in a water bath for 60 minutes. After incubation, 27 μl of RNase-free DEPC treated water was added to each tube to make a total volume 60 μl. cDNA samples were prepared in duplicate. Sample 1 was used immediately in RT-PCR protocol.
# Microcentrifuge tubes from puReTaq™Ready-To-Go™ PCR Beads containing one PCR bead were labeled for each sample required. Added to the PCR bead were 17 μl of RNase-free DEPC treated water, 1 μl sense primer, 1 μl anti-sense primer and 5 μl of the cDNA solution. RT-PCR conditions were as follows: Hsp70 and β-actin, pre-treatment step, 94° C. for 1 minute, followed by denaturing at 92° C. for 1 minute, annealing at 60° C. for 1 minute and extension at 72° C. for 1 minute. Total cycles, 30, post-treatment was then carried out at 72° C. for 10 minutes. For Hsp32, pre-treatment step, 95° C. for 2 minutes, followed by denaturing at 94° C. for 30 seconds, annealing at 58° C. for 1 minute and extension at 72° C. for 1 minute. […]
# [1] = Conc. Hcy 0.000, NACCbl 30 μM, NAC 75 μM, n = 6
# [2] = Conc. Hcy 1.780, NACCbl 30 μM, NAC 75 μM, n = 6
# [3] = Conc. Hcy 3.125, NACCbl 30 μM, NAC 75 μM, n = 6
# [4] = Conc. Hcy 6.250, NACCbl 30 μM, NAC 75 μM, n = 6
# [5] = Conc. Hcy 12.500, NACCbl 30 μM, NAC 75 μM, n = 6
# [6] = Conc. Hcy 25.000, NACCbl 30 μM, NAC 75 μM, n = 6
# [7] = Conc. Hcy 50.000, NACCbl 30 μM, NAC 75 μM, n = 6
# [8] = Conc. Hcy 100.000, NACCbl 30 μM, NAC 75 μM, n = 6
# [9] = Conc. Hcy 200.000, NACCbl 30 μM, NAC 75 μM, n = 6
compound,measurement,setting,value
"CC(=O)N[C@@H](CS)C(=O)O [NAC, N-Acetyl-L-Cysteine, reference compound]","Normalized Data Log 2, Mean",SK-HEP-1 cells; [1],84.288
same,"Normalized Data Log 10, Mean",SK-HEP-1 cells; [1],100.000
same,"Normalized Data Log 2, Mean",SK-HEP-1 cells; [2],69.880
same,"Normalized Data Log 10, Mean",SK-HEP-1 cells; [2],83.752
same,"Normalized Data Log 2, Mean",SK-HEP-1 cells; [3],60.687
same,"Normalized Data Log 10, Mean",SK-HEP-1 cells; [3],73.385
same,"Normalized Data Log 2, Mean",SK-HEP-1 cells; [4],58.837
same,"Normalized Data Log 10, Mean",SK-HEP-1 cells; [4],71.298
same,"Normalized Data Log 2, Mean",SK-HEP-1 cells; [5],45.397
same,"Normalized Data Log 10, Mean",SK-HEP-1 cells; [5],56.141
same,"Normalized Data Log 2, Mean",SK-HEP-1 cells; [6],41.900
same,"Normalized Data Log 10, Mean",SK-HEP-1 cells; [6],52.198
same,"Normalized Data Log 2, Mean",SK-HEP-1 cells; [7],24.035
same,"Normalized Data Log 10, Mean",SK-HEP-1 cells; [7],32.051
same,"Normalized Data Log 2, Mean",SK-HEP-1 cells; [8],13.738
same,"Normalized Data Log 10, Mean",SK-HEP-1 cells; [8],20.439
same,"Normalized Data Log 2, Mean",SK-HEP-1 cells; [9],11.135
same,"Normalized Data Log 10, Mean",SK-HEP-1 cells; [9],17.503
same,Absorbance at 490 nm,"SK-HEP-1 cells; Conc. of Hcy 0.000, NACCbl 30 μM, NAC 75 μM",2.592 and 2.476 and 2.437 and 2.678 and 2.336 and 2.447
same,Absorbance at 490 nm,"SK-HEP-1 cells; Conc. of Hcy 1.780, NACCbl 30 μM, NAC 75 μM",2.225 and 1.903 and 1.947 and 2.310 and 2.187 and 2.206
same,Absorbance at 490 nm,"SK-HEP-1 cells; Conc. of Hcy 3.725, NAC 75 μM",1.890 and 2.003 and 1.784 and 1.946 and 1.958 and 1.801
same,Absorbance at 490 nm,"SK-HEP-1 cells; Conc. of Hcy 6.250, NACCbl 30 μM, NAC 75 μM",1.678 and 1.789 and 1.897 and 1.899 and 1.933 and 1.905
same,Absorbance at 490 nm,"SK-HEP-1 cells; Conc. of Hcy 12.500, NACCbl 30 μM, NAC 75 μM",1.675 and 1.232 and 1.339 and 1.590 and 1.602 and 1.622
same,Absorbance at 490 nm,"SK-HEP-1 cells; Conc. of Hcy 25.000, NACCbl 30 μM, NAC 75 μM",1.345 and 1.501 and 1.632 and 1.378 and 1.226 and 1.447
same,Absorbance at 490 nm,"SK-HEP-1 cells; Conc. of Hcy 50.000, NACCbl 30 μM, NAC 75 μM",0.890 and 0.821 and 1.034 and 1.227 and 0.799 and 1.045
same,Absorbance at 490 nm,"SK-HEP-1 cells; Conc. of Hcy 100.000, NACCbl 30 μM, NAC 75 μM",0.789 and 0.842 and 0.743 and 0.589 and 0.490 and 0.799
same,Absorbance at 490 nm,"SK-HEP-1 cells; Conc. of Hcy 200.000, NACCbl 30 μM, NAC 75 μM",0.567 and 0.668 and 0.623 and 0.490 and 0.721 and 0.788
same,"Absorbance at 490 nm, Mean","SK-HEP-1 cells; SK-HEP-1, NACCbl 30 μM, NAC 75 μM, Hcy conc. 200.000, n = 6, label Hcy = Hcy alone",0.643
same,"Mean (FIG. 14, protection of SK-HEP-1 cells from Hcy)","SK-HEP-1 cells; [Hcy] 30 μM, [NAC] = 45 μM, [NACCbl] = 12.5 μM, [Folate] = 25 μM where named in the label, label Hcy/HCy = Hcy alone",1.296
same,"Mean (FIG. 14a, protection of SK-HEP-1 cells from Hcy in the presence of folate)","SK-HEP-1 cells; [Hcy] 30 μM, folate 25 μM present, [GSCbl] = 15 μM, [NACCbl] = 12.5 μM, [CNCbl] = 15 μM, [MeCbl] = 12.5 μM, [HOCbl] = 17.5 μM, [NAC] = 45 μM, [GSH] = 100 μM",1.438
same,"Absorbance at 490 nm, Mean","SK-HEP-1 cells; as E80, Hcy conc. 0.000",2.494
same,"Absorbance at 490 nm, Mean","SK-HEP-1 cells; as E80, Hcy conc. 1.780",2.130
same,"Absorbance at 490 nm, Mean","SK-HEP-1 cells; as E80, Hcy conc. 3.125",1.897
same,"Absorbance at 490 nm, Mean","SK-HEP-1 cells; as E80, Hcy conc. 6.250",1.850
same,"Absorbance at 490 nm, Mean","SK-HEP-1 cells; as E80, Hcy conc. 12.500",1.510
same,"Absorbance at 490 nm, Mean","SK-HEP-1 cells; as E80, Hcy conc. 25.000",1.421
same,"Absorbance at 490 nm, Mean","SK-HEP-1 cells; as E80, Hcy conc. 50.000",0.969
same,"Absorbance at 490 nm, Mean","SK-HEP-1 cells; as E80, Hcy conc. 100.000",0.709
"O.O.O=c1c(O)c(-c2ccc(O)c(O)c2)oc2cc(O)cc(O)c12 [Quercitin, 2-(3,4-Dihydroxyphenyl)-3,5,7-trihydroxy-4H-1-benzopyran-4-one dihydrate]",Hsp32 gene expression,Hsp32,does not inhibit
same,Hsp70 gene expression,Hsp70,inhibits
"C=CC1=C(C)c2cc3[n-]c(cc4[n-]c(cc5nc(cc1n2)C(C)=C5C=C)c(C)c4CCC(=O)O)c(CCC(=O)O)c3C.[Cl-].[Cl-].[Sn+4] [Sn(IX) protoporphyrin, 8,13-Bis(vinyl)-3,7,12,17-tetramethyl-21H, 23H-porphine-2,18dipropionic acid tin(IV) dichloride]",Hsp32 gene expression,Hsp32,inhibited
